The values that follow come from US20020028938A1, “Prostaglandin endoperoxide H synthase biosynthesis inhibitors” (priority 1997, published 2002).

SMILES strings stand for the structures.

The subject of data set [1] is prostaglandin biosynthesis in vivo (pleural lavage eicosanoids). The data set can be described thus: Rat carrageenan pleural inflammation (CIP) model. Conditions: 10 mpk oral; for inhibition in vivo at 10 mg/kg: 4 h, read-out: CIP % Inhib. @ 10 mpk. The protocol: (§1) For oral administration, test compounds were suspended on the day of use in 100% polyethyleneglycol (PEG 400) with a motorized homogenizer equipped with a Teflon-coated pestle (TRI-R Instrument, Jamaica, N.Y.).
(§2) To compare the mean responses of the treatment groups, analysis of variance was applied. Percent inhibition values were determined by comparing the individual treatment mean values to the mean of the control group. Linear regression was used to estimate IC50's/ED50's in appropriate assays.
Pleural inflammation was induced in male adrenalectomized Sprague-Dawley rats following the method of Vinegar et al., Fed. Proc. 1976, 35, 2447-2456. Animals were orally dosed with experimental compounds, 30 minutes prior to the intrapleural injection of 2% lambda carrageenan (Sigma Chemical Co., St. Louis Mo.). Four hours later the animals were euthanized and the pleural cavities lavaged with ice cold saline. The lavage fluid was then added to two volumes of ice cold methanol (final methanol concentration 66%) to lyse cells and precipitate protein. Eicosanoids were determined by EIA as described above.

The subject of data set [2] is carrageenan induced paw edema. The data set can be described thus: Carrageenan induced paw edema (CPE) in rats. Type of data set: in vivo. Conditions: 10 mpk oral, rat, 3 hours after carrageenan; for inhibition in vivo at 10 mg/kg: read-out: CPE % Inhib. @ 10 mpk. The method, then:
as §1, §2
Hingpaw edema was […] in male rats as described by Winter et al., Proc. Soc. Exp. Biol. Med., 1962, 111, 544. Briefly, male Sprague-Dawley rats weighing between 170 and 190 g were administered test compounds orally 1 hour prior to the subplantar injection of 0.1 ml of 1% sodium carrageenan (lambda carrageenan, Sigma Chemical Co., St Louis, Mo.) into the right hindpaw. Right paw volumes (ml) were measured immediately following injection of carrageenan for baseline volume measurements using a Buxco plethysmograph (Buxco Electronics, Inc., Troy, N.Y.). Three hours after the injection of carrageenan, right paws were remeasured and paw edema calculated for each rat by subtracting the zero time reading from the 3 hour reading. Data are reported as mean percent inhibition +/−SEM. Statistical significance of results was analyzed by Dunnetts multiple comparison test where p<0.05 was considered statistically significant.
A general note: In the carrageenan paw model, swelling and tenderness develop within hours.

The target in data set [3] is T1, recombinant human Cox-1 (r-hu Cox1) (Homo sapiens, UniProt P23219).
T1 construct: made in house; host or cells: baculovirus/Sf9 insect cells (microsomes)
T1 sequence (P23219 24-599): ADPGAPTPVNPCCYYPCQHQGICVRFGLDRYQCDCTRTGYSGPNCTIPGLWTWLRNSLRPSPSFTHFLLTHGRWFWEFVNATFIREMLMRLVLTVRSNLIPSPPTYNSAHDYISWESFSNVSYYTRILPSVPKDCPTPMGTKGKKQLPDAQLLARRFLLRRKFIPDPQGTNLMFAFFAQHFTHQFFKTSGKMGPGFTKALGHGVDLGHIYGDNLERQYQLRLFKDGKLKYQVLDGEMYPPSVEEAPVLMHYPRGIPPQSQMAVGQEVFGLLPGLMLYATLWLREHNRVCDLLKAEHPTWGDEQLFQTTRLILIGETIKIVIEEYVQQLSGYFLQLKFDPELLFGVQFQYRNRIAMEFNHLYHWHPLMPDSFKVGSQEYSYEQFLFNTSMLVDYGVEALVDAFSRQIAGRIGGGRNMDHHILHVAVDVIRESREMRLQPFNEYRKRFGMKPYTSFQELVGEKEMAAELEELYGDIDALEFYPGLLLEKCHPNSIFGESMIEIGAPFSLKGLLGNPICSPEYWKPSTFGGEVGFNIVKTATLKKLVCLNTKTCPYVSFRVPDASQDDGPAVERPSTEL
Put plainly: Recombinant human PGHS-1 enzyme assay (RHUCX1). Type of data set: biochemical. Conditions: 100 μM; for inhibition at 100 µM: read-out: RHUCX1 % Inh. at Dose. In short, it runs like this:
(§3)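 PGE2 by EIA (optical density) → % inhibition vs control-group mean → IC50 from linear regression.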

Data set [4] has as its target T2, recombinant human Cox-2 (r-hu Cox-2) (Homo sapiens, UniProt P35354).
T2 construct: made in house; host or cells: baculovirus/Sf9 insect cells (microsomes)
T2 sequence (P35354 18-604): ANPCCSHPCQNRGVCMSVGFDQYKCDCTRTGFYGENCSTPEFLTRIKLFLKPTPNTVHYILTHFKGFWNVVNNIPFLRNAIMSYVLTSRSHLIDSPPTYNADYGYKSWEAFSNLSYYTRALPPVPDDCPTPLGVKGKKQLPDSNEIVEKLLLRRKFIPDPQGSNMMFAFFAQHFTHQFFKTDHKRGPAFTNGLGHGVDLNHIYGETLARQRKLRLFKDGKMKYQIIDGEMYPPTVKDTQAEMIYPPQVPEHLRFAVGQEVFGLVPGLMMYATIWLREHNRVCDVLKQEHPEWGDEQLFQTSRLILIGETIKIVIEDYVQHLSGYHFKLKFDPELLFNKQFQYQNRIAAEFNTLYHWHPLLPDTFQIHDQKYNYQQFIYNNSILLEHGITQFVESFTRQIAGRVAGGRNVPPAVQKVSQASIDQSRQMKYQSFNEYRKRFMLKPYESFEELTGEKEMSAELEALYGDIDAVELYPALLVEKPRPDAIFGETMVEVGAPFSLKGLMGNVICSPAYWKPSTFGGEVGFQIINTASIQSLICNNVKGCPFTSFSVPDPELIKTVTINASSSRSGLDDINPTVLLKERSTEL
The data set can be described thus: Recombinant human PGHS-2 enzyme assay (RHUCX2). Type of data set: biochemical. The note with it: for inhibition at 0.1 µM / inhibition at 1 µM / inhibition at 10 µM: read-out: RHUCX2 % Inh. at Dose; for IC50: read-out: RHUCX2 IC50 (parenthetical value). In short, it runs like this: as §3

Data set [5] deals with T3, Human Whole Platelet Cyclooxygenase-1 (Homo sapiens, UniProt P23219).
T3 construct: from tissue; host or cells: human blood: isolated platelets (A4) or heparinised whole blood (A9)
T3 sequence (P23219 24-599): as the sequence (P23219 24-599) above
Put plainly: Human Whole Platelet Cyclooxygenase-1 assay (HWPX). Type of data set: cell-based. Conditions: for IC50: read-out: HWPX IC50 (parenthetical value). In short, it runs like this: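 Thromboxane production was measured with a commercial kit after stimulation of washed human platelets (ACD-anticoagulated volunteer blood) by 8.8 μM final A23187 for 10 min. Test compounds were added 10 min before stimulus; cold 6 mM EDTA terminated the reaction.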

Data set [6] concerns the target T4, human amnionic whole cell cyclooxygenase-2 (WISH cells) (Homo sapiens, UniProt P35354).
T4 construct: endogenous in cells; host or cells: human amnionic WISH cells, induced with IL-1beta
T4 sequence (P35354 18-604): T2 sequence (P35354 18-604)
Put plainly: IL-1β induced PGE2 production in WISH cells. Type of data set: cell-based. The note with it: read-out: Wish IC50 (parenthetical value). In short, it runs like this: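 PGE2 was quantified by enzyme immunoassay (optical density read) against standards made up in the matching medium. WISH cells at 80% confluence, washed and placed in serum-free Neuman-Tytell medium, received 5 ng/ml IL-1β plus test compound or DMSO vehicle (0.01% v/v).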

The test system of data set [7] is air pouch prostaglandin biosynthesis (Cox-2). Put plainly: Carrageenan induced air pouch prostaglandin biosynthesis model (CAP). In kind it is in vivo, rat. Conditions: 4 h; 3 mpk, rat; read-out: CAP % Inhib. @ 3 mpk. The method, boiled down:
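Male Sprague Dawley rats with dorsal air pouches (20 mL air day 0, 10 mL day 3) received 0.2% lambda carrageenan in saline into the pouch on day 7. Compounds dosed at 0.1 to 10 mg/kg 30 min before carrageenan; pouch lavaged 4 h later, prostaglandins measured by EIA. Percent inhibition versus control mean; ED50 by linear regression.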

Where [8] appears, read: read-out: HWPX % Inhib. at Dose.

For `CS(=O)(=O)c1ccc(-c2cnn(-c3ccccc3)c(=O)c2-c2ccc(F)cc2)cc1` [Example 12, 2-Phenyl-4-(4-fluorophenyl)-5-[4-(methylsulfonyl)phenyl]-3(2H)-pyridazinone], the melting point (usually the temperature of the solid-liquid transition) was 219 to 220 °C. For the same compound, the inhibition in vivo at 10 mg/kg in data set [1] amounted to 42%. Also, the inhibition in vivo at 10 mg/kg in data set [2] is 25%. The inhibition at 100 µM in data set [3] came out at 0%. Moreover, in data set [4], the inhibition at 0.1 µM amounted to 9%, the inhibition at 1 µM turned out to be 77% and the inhibition at 10 µM came out at 97%.
On to `CS(=O)(=O)c1ccc(-c2cnn(CC(F)(F)F)c(=O)c2-c2ccc(F)cc2)cc1` [Example 34, 2-(2,2,2-Trifluoroethyl)-4-(4-fluorophenyl)-5-[4-(methylsulfonyl)-phenyl]-3(2H)-pyridazinone], for which the melting point fell in the range of 177 to 179 °C. Besides, in data set [1], the inhibition in vivo at 10 mg/kg came out at 36%. The inhibition in vivo at 10 mg/kg in data set [2] worked out at 31%. In data set [3], the inhibition at 100 µM was found to be 16%. Moreover, in data set [4], the IC50 (usually the point on the concentration scale where inhibition reaches its midpoint) is 920 nM.
The compound `CS(=O)(=O)c1ccc(-c2cnn(CC(F)(F)F)c(=O)c2-c2ccc(F)c(Cl)c2)cc1` [Example 54, 2-(2,2,2-Trifluoroethyl)-4-(3-chloro-4-fluorophenyl)-5-[4-(methylsulfonyl)phenyl]-3(2H)-pyridazinone] yielded a melting point of 165 to 166 °C. Also, the inhibition in vivo at 10 mg/kg in data set [1] is 31%. The inhibition in vivo at 10 mg/kg in data set [2] was 30%. Also, the inhibition at 100 µM in data set [3] was 0%. Besides, in data set [4], the inhibition at 0.1 µM was 58% and the inhibition at 1 µM was 95%.
`CS(=O)(=O)c1ccc(-c2cnn(-c3ccc(F)cc3)c(=O)c2-c2ccc(F)cc2)cc1` [Example 62, 2,4-Bis(4-fluorophenyl)-5-[4-(methylsulfonyl)phenyl]-3(2H)-pyridazinone] displayed a melting point of 168 to 169 °C. For the same compound, the inhibition in vivo at 10 mg/kg in data set [1] was 57%. The inhibition in vivo at 10 mg/kg in data set [2] was determined as 21%. Moreover, the inhibition at 100 µM in data set [3] worked out at 6%. For the same compound, the IC50 in data set [4] stood at 624 nM.
On to `NS(=O)(=O)c1ccc(-c2cnn(CC(F)(F)F)c(=O)c2-c2ccc(F)cc2)cc1` [Example 68, 2-(2,2,2-Trifluoroethyl)-4-(4-fluorophenyl)-5-[4-(aminosulfonyl)phenyl]-3(2H)-pyridazinone], for which the melting point lay in the range of 193 to 195 °C. Further, the inhibition in vivo at 10 mg/kg in data set [1] was found to be 64%. For the same compound, in data set [2], the inhibition in vivo at 10 mg/kg stood at 40.3%. Also, the inhibition at 100 µM in data set [3] came out at 32%. The IC50 in data set [4] amounted to 297 nM.
On to `CC(C)Oc1c(-c2ccc(S(C)(=O)=O)cc2)cnn(Cc2ccccc2)c1=O` [Example 74, 2-Benzyl-4-(2-propoxy)-5-[4-(methylsulfonyl)phenyl]-3(2H)-pyridazinone], for which the melting point is 109 to 111 °C. Further, the inhibition in vivo at 10 mg/kg in data set [1] is 46.5%. Further, the inhibition in vivo at 10 mg/kg in data set [2] was 18%. For the same compound, the inhibition at 100 µM in data set [3] was found to be 11%.
`C[S+]([O-])c1ccc(-c2cnn(CC(F)(F)F)c(=O)c2-c2ccc(Cl)cc2)cc1` (centres unmarked) [Example 77] had a melting point of 154 to 155 °C. For the same compound, in data set [1], the inhibition in vivo at 10 mg/kg turned out to be 51%. For the same compound, the inhibition in vivo at 10 mg/kg in data set [2] stood at 21%. Moreover, the inhibition at 100 µM in data set [3] stood at 35%. The IC50 in data set [5] was determined as 8800 nM. In addition, in data set [4], the inhibition at 1 µM stood at 39% and the inhibition at 10 µM was 82%. In addition, in data set [6], the half-inhibitory concentration (IC50) was 126 nM.
In the case of `CS(=O)(=O)c1ccc(-c2cnn(C3CCCCC3)c(=O)c2-c2ccc(F)cc2)cc1` [Example 120, 2-Cyclohexyl-4-(4-fluorophenyl)-5-[4-(methylsulfonyl)phenyl]-3(2H)-pyridazinone], the melting point lay in the range of 169 to 171 °C. In addition, the inhibition in vivo at 10 mg/kg in data set [1] was 5%. Moreover, in data set [2], the inhibition in vivo at 10 mg/kg was 11%. In addition, the inhibition at 100 µM in data set [3] was 15%. Also, in data set [5] (setting [8]), the inhibition at 1 µM came to 58%. For the same compound, in data set [5] (3 μM, read-out: HWPX % Inhib. at Dose), the inhibition at 3 µM is 74%. Besides, in data set [4], the inhibition at 0.1 µM is 45% and the inhibition at 1 µM was 97%. In data set [6], the IC50 was 25 nM.
Take `CS(=O)(=O)c1ccc(-c2cnn(C3CCCC3)c(=O)c2-c2ccc(F)cc2)cc1` [Example 121, 2-Cyclopentyl-4-(4-fluorphenyl)-5-[4-(methylsulfonyl)phenyl]-3(2H)-pyridazinone]: the “CIP % Inhib. @ 10 mpk” value in data set [1] stood at 19%. Besides, the “CPE % Inhib. @ 10 mpk” value in data set [2] worked out at 8%. Besides, the “RHUCX1 % Inh. at Dose (μM)” value in data set [3] was 0 @ 100%. For the same compound, the IC50 was found to be 5 nM in data set [4] and 41 nM in data set [6].
`CS(=O)(=O)c1ccc(-c2cnn(-c3ccc(Cl)cc3)c(=O)c2-c2ccc(F)cc2)cc1` [Example 160, 2-(4-Chlorophenyl)-4-(4-fluorophenyl)-5-[4-(methylsulfonyl)phenyl]-3(2H)-pyridazinone]: the melting point was 214 to 216 °C. Also, the inhibition in vivo at 10 mg/kg in data set [1] is 56%. In addition, the inhibition in vivo at 10 mg/kg in data set [2] is 35%. Further, the IC50 in data set [5] turned out to be 7200 nM. Also, the IC50 in data set [6] turned out to be 30 nM.
On to `CS(=O)(=O)c1ccc(-c2cnn(-c3cccc(Br)c3)c(=O)c2-c2ccc(F)cc2)cc1` [Example 166, 2-(3-Bromophenyl)-4-(4-fluorophenyl)-5-[4-(methylsulfonyl)phenyl]-3(2H)-pyridazinone], for which the melting point is 210 to 212 °C. Also, the inhibition in vivo at 10 mg/kg in data set [1] turned out to be 40%. Moreover, in data set [7], the inhibition in vivo at 3 mg/kg turned out to be 59%. The inhibition at 100 µM in data set [3] stood at 3%. In addition, the concentration for half-maximal inhibition (IC50) in data set [5] amounted to 9400 nM. Also, in data set [4], the IC50 was found to be 199 nM. In data set [6], the 50% inhibitory concentration (IC50) turned out to be 20 nM.
`Cc1ccc(-n2ncc(-c3ccc(S(C)(=O)=O)cc3)c(-c3ccc(F)cc3)c2=O)s1` [Example 168] came in with a melting point of 219 to 224 °C. Besides, the inhibition in vivo at 10 mg/kg in data set [1] turned out to be 0%. Moreover, the inhibition in vivo at 10 mg/kg in data set [2] was determined as 6%. Further, the inhibition at 100 µM in data set [3] was 0%. Moreover, in data set [5] (setting [8]), the inhibition at 1 µM was found to be 47%. For the same compound, in data set [4], the inhibition at 0.1 µM came out at 93% and the inhibition at 1 µM came to 85%. Also, the IC50 in data set [6] amounted to 9 nM.
